Data taken from US20080194640A1, “Optically Active Tetrahydronaphthalene Derivative” (priority 2005, published 2008).

Legend:
[1] = molecular target: T1, C5a receptor (Homo sapiens, UniProt P21730); assay: C5a receptor binding assay ([125I]-human C5a, human peripheral blood neutrophil); conditions: [125I]-C5a 200 pM, 4° C. for 2 hr, read-out: IC50 value, inhibition of [125I]-human C5a binding
T1 construct: neutrophil fraction was separated from human peripheral intravenous blood; endogenous in cells; host or cells: human peripheral blood neutrophils (whole cells)
T1 sequence (P21730 1-350): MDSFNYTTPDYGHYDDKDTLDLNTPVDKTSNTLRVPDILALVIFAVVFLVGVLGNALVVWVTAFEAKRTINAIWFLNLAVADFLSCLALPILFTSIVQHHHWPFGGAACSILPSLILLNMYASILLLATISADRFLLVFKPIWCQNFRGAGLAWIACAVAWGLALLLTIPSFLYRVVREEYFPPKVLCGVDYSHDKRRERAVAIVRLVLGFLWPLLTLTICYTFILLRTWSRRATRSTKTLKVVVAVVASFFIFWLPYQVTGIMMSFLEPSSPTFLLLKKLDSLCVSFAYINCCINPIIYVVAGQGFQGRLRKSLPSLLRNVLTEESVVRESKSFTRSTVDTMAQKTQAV
Description: The C5a receptor binding inhibitory action of C5a and the test compound was evaluated by a receptor binding assay comprising of human peripheral blood neutrophil, which expresses the C5a receptor, and [^125I]-human C5a (Amersham Pharmacia Biotech) in a MultiScreen (MILLIPORE). First, neutrophil fraction was separated from human peripheral intravenous blood using lympholyte-poly (Cedarlane), and suspended in a Binding buffer [50 mM HEPES, 1 mM CaCl2, 5 mM MgCl2, 0.5% bovine albumin (BSA, SIGMA), 0.02% NaN3 (pH 7.2)]. The binding assay was started by the addition of 1×10^5 cells/50 μL neutrophil suspension, 25 μL of a test compound solution (obtained by dissolving the test compound in N,N-dimethylformamide to a final concentration of 10 mmol/L and diluting with binding buffer), and 25 μL of [^125I]-C5a solution (final concentration 200 pM), to each well of the MultiScreen. […] After drying the MultiScreen, the radioactivity on the filter was measured using a gamma counter.
The rate of inhibition (% inhibition) of C5a binding by the test compound was calculated by the following formula using the count value obtained without addition of the test compound as Total, the count value obtained with addition of non-labeled C5a as Non, and the count value obtained with addition of the test compound as Test. […]

[2] = tested on: C5a stimulated neutrophil; assay: Production of reactive oxygen species in C5a-stimulated neutrophil; type: cell-based; conditions: human neutrophil, C5a 3 nmol/L, luminol luminescence, 37° C.; read-out: IC50 value, inhibition of production of reactive oxygen species in C5a stimulated neutrophil
Description: A neutrophil fraction was separately taken from human peripheral venous blood using Lympholyte-poly (Cedarlane), and suspended in Hank's Balanced Salt Solution (HBSS, GIBCO BRL) containing 1% fetal bovine serum (FBS) and 1 mmol/L luminol (Wako Pure Chemical Industries, Ltd.). Reactive oxygen species was measured using a luminometer (MicroLumat, Berthold) for 96-well plate. […] Then, 25 μL of C5a (final concentration 3 nmol/L) was added and luminescence produced by the reaction of the luminol and the reactive oxygen species was measured with the lapse of time for 15 min. The rate of inhibition (% inhibition) of the production of reactive oxygen species in C5a stimulated neutrophil by the test compound was calculated by the following formula, wherein the peak value of the production of reactive oxygen species derived by C5a without addition of the test compound is Max, the peak value of the production of reactive oxygen species without addition of the test compound and without C5a stimulation is Min, and the peak value of the production of reactive oxygen species derived by C5a with the addition of the test compound is Test. […]

`CCn1cc(CN(C(=O)C2CCCc3c(O)cccc32)c2ccc(C(C)C)nc2)cn1` (racemic) [racemate of the compound of Example 3, N-[(1-ethyl-1H-pyrazol-4-yl)methyl]-5-hydroxy-N-(6-isopropylpyridin-3-yl)-1,2,3,4-tetrahydronaphthalene-1-carboxamide, reference compound] was tested, and the IC50 [1] was 23 nM and the IC50 [2] was 5.9 nM.
